Experimental findings from ChEMBL document CHEMBL1201862, “PubChem BioAssay data set” (2004) are described below.

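Step 1: Grow cells in 96-well plates. Step 2: Expose to compound for 48 hours at 5 concentrations. Step 3: Interpolate endpoints linearly; if unreached, use highest concentration. At the GI50, growth is halved.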 Active and inactive are the calls of the source. No stated cut-off is given here; in the data, active = GI50 up to about 1.1 µM and inactive = higher.

Some test systems named below: OVCAR-5; BT-549; A498; DU-145; SW-620; NCI-H522; SK-OV-3; SF-539; OVCAR-8; SNB-19; 786-0; SNB-75; COLO 205; HT-29; KM12; U-251; HL-60; SR; TK-10; OVCAR-4.
Experiment in all cases: NCI tumour cell line growth inhibition, 48 h

With `NC1(P(=O)(O)O)CCCCC1`, the GI50 with OVCAR-5, in the assay with BT-549, with A498, in the assay with DU-145, with SW-620 and with NCI-H522 was > 100 µM (inactive) throughout. Besides, the GI50 in the assay with SK-OV-3, with SF-539, with OVCAR-8, in the assay on SNB-19, with 786-0 and with SNB-75 was > 100 µM (inactive) each time. The GI50 with COLO 205 was > 100 µM (inactive); in the assay with HT-29, > 100 µM (inactive); in the assay with KM12, > 100 µM (inactive); in the assay on U-251 it was > 100 µM (inactive); in the assay on HL-60, < 0.01 µM (active); in the assay on SR, > 100 µM (inactive). Moreover, the GI50 in the assay on TK-10 and with OVCAR-4 was > 100 µM (inactive) each time.

`CCOC(=O)CC[C@H](N)C(=O)N[C@H](Cc1ccc(N(CCCl)CCCl)cc1)C(=O)OCC`: the GI50 is 5.06 µM (inactive) in the assay on OVCAR-5; 9.25 µM (inactive) with BT-549; 8.53 µM (inactive) in the assay on A498; 0.348 µM (active) with DU-145; 3.56 µM (inactive) in the assay on SW-620; 1.41 µM (inactive) in the assay with NCI-H522. Besides, the GI50 is 4.54 µM (inactive) with SK-OV-3; 1.99 µM (inactive) in the assay with SF-539; 2.97 µM (inactive) in the assay with OVCAR-8; 16.1 µM (inactive) in the assay on SNB-19; 0.703 µM (active) with 786-0; 0.468 µM (active) in the assay on SNB-75. The GI50 in the assay on COLO 205 was 0.977 µM (active); with HT-29, 3.92 µM (inactive); with KM12, 3.32 µM (inactive); in the assay on U-251, 6.47 µM (inactive); with HL-60 it was 4.16 µM (inactive); in the assay on SR it was 0.09 µM (active). The GI50 is 2.26 µM (inactive) in the assay on TK-10 and 5.18 µM (inactive) in the assay on OVCAR-4.

With `O=C1c2ccccc2C(=O)c2c1ccc1conc21`, the GI50 was 3 µM (inactive) with OVCAR-5; 1.91 µM (inactive) in the assay with BT-549; 11.9 µM (inactive) in the assay on A498; 2.59 µM (inactive) in the assay with DU-145; 2.1 µM (inactive) in the assay with SW-620; 1.7 µM (inactive) with NCI-H522. Besides, the GI50 in the assay on SK-OV-3 is 6.46 µM (inactive); with SF-539, 1.95 µM (inactive); with OVCAR-8, 1.66 µM (inactive); with SNB-19 it was 5.48 µM (inactive); in the assay with 786-0, 2.75 µM (inactive); in the assay on SNB-75, 7.59 µM (inactive). Also, the GI50 in the assay on COLO 205 was 5.65 µM (inactive); with HT-29 it was 4.37 µM (inactive); with KM12, 3.24 µM (inactive); with U-251, 1.62 µM (inactive); with HL-60, 0.402 µM (active); in the assay on SR, 1.36 µM (inactive). In addition, the GI50 is 6.44 µM (inactive) in the assay on TK-10 and 0.7 µM (active) with OVCAR-4.

On to `Cc1cn(C2CC(O)C(COC(N)=O)O2)c(=O)[nH]c1=O` (stereo not given), for which the GI50 in the assay on OVCAR-5, in the assay on BT-549, in the assay on A498, with DU-145, with SW-620 and in the assay on NCI-H522 was > 100 µM (inactive) throughout. The GI50 in the assay on SK-OV-3 was > 100 µM (inactive); in the assay on SF-539, > 100 µM (inactive); in the assay on OVCAR-8, > 100 µM (inactive); in the assay on SNB-19 it was > 100 µM (inactive); in the assay with 786-0, > 100 µM (inactive); with SNB-75 it was 71.1 µM (inactive). Moreover, the GI50 with COLO 205, with HT-29, in the assay with KM12, in the assay with U-251, in the assay on HL-60 and with SR was > 100 µM (inactive) throughout. Also, the GI50 in the assay with TK-10 and in the assay on OVCAR-4 was > 100 µM (inactive) each time.

Consider `CCCCC(=O)NC1(c2cc3ccccc3s2)CCCCC1`, for which the GI50 in the assay with OVCAR-5, in the assay on BT-549, in the assay on A498, in the assay on DU-145, in the assay with SW-620 and in the assay on NCI-H522 was > 100 µM (inactive) in each case. The GI50 in the assay with SK-OV-3 was > 100 µM (inactive); in the assay with SF-539, 33.2 µM (inactive); with OVCAR-8 it was 80.4 µM (inactive); with SNB-19, > 100 µM (inactive); in the assay on 786-0, > 100 µM (inactive); in the assay on SNB-75, > 100 µM (inactive). The GI50 with COLO 205 is > 100 µM (inactive); with HT-29, > 100 µM (inactive); with KM12, > 100 µM (inactive); with U-251, > 100 µM (inactive); in the assay on HL-60 it was 4.89 µM (inactive); in the assay on SR, > 100 µM (inactive). The GI50 in the assay on TK-10 and in the assay on OVCAR-4 was > 100 µM (inactive) each time.

For the compound `CCCCCOC(=O)C(=O)Nc1[nH]nnc1C(N)=O`, the GI50 in the assay on OVCAR-5, in the assay with BT-549, in the assay with A498, in the assay with DU-145, in the assay with SW-620 and in the assay with NCI-H522 was > 100 µM (inactive) in each case. Moreover, the GI50 in the assay on SK-OV-3, with SF-539, with OVCAR-8, in the assay on SNB-19, in the assay with 786-0 and with SNB-75 was > 100 µM (inactive) throughout. Also, the GI50 in the assay on COLO 205, in the assay on HT-29, in the assay with KM12, in the assay with U-251, with HL-60 and in the assay with SR was > 100 µM (inactive) throughout. Besides, the GI50 with TK-10 and in the assay on OVCAR-4 was > 100 µM (inactive) throughout.

As for `COc1ccc(C2c3cc4c(cc3OC(NNC(N)=O)C2C)OCO4)cc1` (stereo not given), the GI50 in the assay with OVCAR-5 was 26.6 µM (inactive); with BT-549 it was 7.16 µM (inactive); in the assay with A498, 2.87 µM (inactive); in the assay on DU-145 it was 22.3 µM (inactive); with SW-620, 3.56 µM (inactive); with NCI-H522 it was 3.45 µM (inactive). The GI50 in the assay with SK-OV-3 was 5.26 µM (inactive); in the assay with SF-539, 1.16 µM (inactive); in the assay on OVCAR-8, 6.67 µM (inactive); in the assay with SNB-19 it was 13.7 µM (inactive); in the assay with 786-0, 5.26 µM (inactive); in the assay on SNB-75, 6.22 µM (inactive). The GI50 with COLO 205 was 3.95 µM (inactive); with HT-29 it was 3.3 µM (inactive); in the assay on KM12 it was 4.78 µM (inactive); in the assay with U-251, 4.95 µM (inactive); in the assay on HL-60, 2.2 µM (inactive); in the assay on SR, 1.9 µM (inactive). Moreover, the GI50 in the assay with TK-10 is 25.8 µM (inactive); in the assay with OVCAR-4 it was 56.4 µM (inactive).

Consider `COc1ccc(N2C(=O)CC(=O)N(C(=O)CCCCCCCCC(=O)N3C(=O)CC(=O)N(c4ccc(OC)cc4)C3=S)C2=S)cc1`, for which the GI50 in the assay with OVCAR-5 is > 100 µM (inactive); with BT-549, 33.9 µM (inactive); with A498 it was > 100 µM (inactive); in the assay with DU-145, > 100 µM (inactive); in the assay with SW-620, > 100 µM (inactive); in the assay on NCI-H522 it was 65.2 µM (inactive). For the same compound, the GI50 in the assay with SK-OV-3, in the assay with SF-539, in the assay on OVCAR-8, in the assay on SNB-19, with 786-0 and in the assay on SNB-75 was > 100 µM (inactive) in each case. Also, the GI50 in the assay with COLO 205 is > 100 µM (inactive); with HT-29, > 100 µM (inactive); with KM12, 79.6 µM (inactive); in the assay on U-251, > 100 µM (inactive); with HL-60 it was 95.9 µM (inactive); with SR it was 39.4 µM (inactive). Further, the GI50 in the assay with TK-10 and in the assay on OVCAR-4 was > 100 µM (inactive) each time.

For the compound `CC(C)(C)OC(=O)N1C(c2cccnc2)=CC[C@H]2C3CC=C(c4cccnc4)[C@@]3(C)CC[C@@H]21` (stereo not given in full), the GI50 in the assay with OVCAR-5 is 11.9 µM (inactive); in the assay on BT-549, 4.53 µM (inactive); in the assay on A498 it was 5.81 µM (inactive); with DU-145, 4.76 µM (inactive); with SW-620 it was 3.83 µM (inactive); in the assay on NCI-H522 it was 2.92 µM (inactive). The GI50 with SK-OV-3 was 4.54 µM (inactive); with SF-539, 3.82 µM (inactive); with OVCAR-8 it was 4.02 µM (inactive); with SNB-19, 4.83 µM (inactive); in the assay on 786-0, 4.86 µM (inactive); with SNB-75 it was 5.6 µM (inactive). In addition, the GI50 is 1.74 µM (inactive) with COLO 205; 3.53 µM (inactive) with HT-29; 4.06 µM (inactive) in the assay on KM12; 3.36 µM (inactive) with U-251; 1.97 µM (inactive) with HL-60; 3.28 µM (inactive) with SR. For the same compound, the GI50 with TK-10 is 4.22 µM (inactive); in the assay with OVCAR-4 it was 5.09 µM (inactive).

As for `O=c1[nH]/c(=C/c2ccc(OCc3ccccc3)cn2)c(=O)[nH]/c1=C/c1ccccc1`, the GI50 with OVCAR-5 is 1.07 µM (active); in the assay on BT-549 it was 0.787 µM (active); in the assay with A498, 0.743 µM (active); with DU-145 it was 0.128 µM (active); in the assay with SW-620, 0.158 µM (active); in the assay on NCI-H522, 0.0942 µM (active). The GI50 was 0.531 µM (active) in the assay on SK-OV-3; 0.12 µM (active) in the assay with SF-539; 0.189 µM (active) in the assay on OVCAR-8; 0.157 µM (active) in the assay on SNB-19; 0.128 µM (active) with 786-0; 0.0643 µM (active) in the assay on SNB-75. In addition, the GI50 was 1.06 µM (active) in the assay with COLO 205; 0.12 µM (active) with HT-29; 0.118 µM (active) in the assay with KM12; 0.119 µM (active) in the assay on U-251; 0.091 µM (active) with HL-60; 0.289 µM (active) in the assay on SR. Besides, the GI50 in the assay with TK-10 is 0.164 µM (active); with OVCAR-4, 0.465 µM (active).
